Measured values published in patent US20250145642A1, “BICYCLIC HETEROARENES AND METHODS OF THEIR USE” (Kineta, Inc., priority 2021, published 2025).
pIC50: −log10 of the molar value.

Tests used:
[1] = molecular target: full-length human PIKFYVE (N-terminal GST-fusion) (Homo sapiens (Human), UniProt Q9Y2I7, L932S/Q1183K/Q995L/S1033A/S696N/T998S); assay: PIKfyve biochemical assay (ADP-Glo Kinase assay, Carna Biosciences); details: ADP-Glo, full-length human GST-PIKFYVE, 10 μM to 3 nM; read-out: hPIKfyve IC50
How it was run: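 Baculovirus-expressed, glutathione-purified GST-tagged full-length human PIKFYVE (S696N/L932S/Q995L/T998S/S1033A/Q1183K) reacted with substrate and ATP in 50 mM MOPS, 1 mM DTT, pH 7.2, 1 h at room temperature. ADP formed read by ADP-Glo luminescence.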

[2] = molecular target: PIKfyve (PIKFYVE-NanoLuc fusion in HEK293 cells) (Homo sapiens (Human), UniProt Q9Y2I7); assay: NanoBRET TE Intracellular Kinase Assay, K-8 (Promega) cell-based assay; details: transfected HEK293 cells, 2 hours, read-out: hPIKfyve BRET IC50
Procedure: NanoBRET™ TE Intracellular Kinase Assay, K-8 (Promega) Cell-Based Assay. Intracellular inhibition of PIKfyve was assayed using Promega's NanoBRET™ TE Intracellular Kinase Assay, K-8 according to manufacturer's instructions. A dilution series of test compounds was added for 2 hours to HEK293 cells transfected for a minimum of 20 hours with PIKFYVE-NanoLuc® Fusion Vector (Promega) containing a full-length PIKfyve according to manufacturer's specifications in a 96-well plate. Kinase activity was detected by addition of a NanoBRET™ tracer reagent, which was a proprietary PIKfyve inhibitor appended to a fluorescent probe (BRET, bioluminescence resonance energy transfer). Test compounds were tested at concentrations of 10, 3, 1, 0.3, 0.1, 0.03, 0.01, 0.003 μM. BRET signals were measured by a GloMax®Discover Multimode Microplate Reader (Promega) using 0.3 sec/well integration time, 450 BP donor filter and 600 LP acceptor filters. Active test compounds that bound PIKfyve and displaced the tracer reduced BRET signal. IC50 values were then calculated by fitting the data to the normalized BRET ratio.

Sequence of full-length human PIKFYVE (N-terminal GST-fusion) (Q9Y2I7 whole entry S696N/L932S/Q995L/T998S/S1033A/Q1183K, the tested form may be a part): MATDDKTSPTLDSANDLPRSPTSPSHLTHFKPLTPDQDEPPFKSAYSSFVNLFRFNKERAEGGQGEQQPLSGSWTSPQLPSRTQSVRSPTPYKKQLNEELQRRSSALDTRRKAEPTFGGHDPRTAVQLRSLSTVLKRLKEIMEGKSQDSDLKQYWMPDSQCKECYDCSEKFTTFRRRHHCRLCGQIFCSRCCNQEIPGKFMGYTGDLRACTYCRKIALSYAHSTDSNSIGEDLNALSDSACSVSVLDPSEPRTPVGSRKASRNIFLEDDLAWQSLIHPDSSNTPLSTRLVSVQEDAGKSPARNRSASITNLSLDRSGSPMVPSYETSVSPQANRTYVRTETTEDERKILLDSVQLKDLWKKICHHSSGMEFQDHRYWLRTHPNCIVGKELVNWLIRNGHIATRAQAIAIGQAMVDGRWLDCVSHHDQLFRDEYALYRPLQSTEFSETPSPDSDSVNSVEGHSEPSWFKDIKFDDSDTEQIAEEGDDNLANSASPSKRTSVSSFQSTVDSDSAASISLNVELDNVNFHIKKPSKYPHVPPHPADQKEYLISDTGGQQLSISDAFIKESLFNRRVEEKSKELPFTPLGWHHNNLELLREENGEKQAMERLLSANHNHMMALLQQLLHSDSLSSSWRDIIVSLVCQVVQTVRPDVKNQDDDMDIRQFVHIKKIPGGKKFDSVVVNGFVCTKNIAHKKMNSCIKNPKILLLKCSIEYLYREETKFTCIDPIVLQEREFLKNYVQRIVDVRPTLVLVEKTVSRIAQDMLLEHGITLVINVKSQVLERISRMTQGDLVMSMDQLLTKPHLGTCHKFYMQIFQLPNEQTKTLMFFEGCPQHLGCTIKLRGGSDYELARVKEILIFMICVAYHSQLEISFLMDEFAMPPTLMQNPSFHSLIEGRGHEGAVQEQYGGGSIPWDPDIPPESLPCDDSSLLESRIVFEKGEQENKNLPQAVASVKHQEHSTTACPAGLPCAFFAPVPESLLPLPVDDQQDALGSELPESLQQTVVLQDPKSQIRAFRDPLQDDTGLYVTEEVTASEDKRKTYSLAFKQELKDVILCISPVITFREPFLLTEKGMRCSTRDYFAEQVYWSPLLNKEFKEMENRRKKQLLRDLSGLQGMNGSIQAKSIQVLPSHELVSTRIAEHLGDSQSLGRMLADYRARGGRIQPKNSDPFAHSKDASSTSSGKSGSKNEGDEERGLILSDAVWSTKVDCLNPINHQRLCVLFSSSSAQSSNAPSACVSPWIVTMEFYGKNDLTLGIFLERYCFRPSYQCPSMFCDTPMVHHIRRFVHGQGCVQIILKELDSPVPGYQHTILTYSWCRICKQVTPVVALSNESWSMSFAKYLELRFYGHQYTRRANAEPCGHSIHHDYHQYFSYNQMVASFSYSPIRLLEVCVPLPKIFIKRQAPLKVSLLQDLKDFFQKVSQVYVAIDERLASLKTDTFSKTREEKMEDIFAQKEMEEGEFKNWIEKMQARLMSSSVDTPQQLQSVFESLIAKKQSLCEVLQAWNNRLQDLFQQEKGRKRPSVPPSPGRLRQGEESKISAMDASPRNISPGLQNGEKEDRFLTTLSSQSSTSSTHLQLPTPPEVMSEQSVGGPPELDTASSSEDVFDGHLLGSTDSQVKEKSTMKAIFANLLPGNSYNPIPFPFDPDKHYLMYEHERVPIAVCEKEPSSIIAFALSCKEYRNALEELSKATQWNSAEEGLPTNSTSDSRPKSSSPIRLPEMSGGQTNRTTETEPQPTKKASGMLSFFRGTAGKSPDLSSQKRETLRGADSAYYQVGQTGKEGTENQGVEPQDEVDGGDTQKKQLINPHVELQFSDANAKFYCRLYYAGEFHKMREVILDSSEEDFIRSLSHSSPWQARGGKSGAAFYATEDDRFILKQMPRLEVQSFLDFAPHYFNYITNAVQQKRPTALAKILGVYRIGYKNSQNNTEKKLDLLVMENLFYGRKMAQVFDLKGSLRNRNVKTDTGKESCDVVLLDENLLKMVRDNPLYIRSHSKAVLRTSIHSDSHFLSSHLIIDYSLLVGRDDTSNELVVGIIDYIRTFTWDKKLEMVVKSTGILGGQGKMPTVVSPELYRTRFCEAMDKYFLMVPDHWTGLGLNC
Sequence of PIKfyve (PIKFYVE-NanoLuc fusion in HEK293 cells) (Q9Y2I7 whole entry, the tested form may be a part): as the sequence (Q9Y2I7 whole entry S696N/L932S/Q995L/T998S/S1033A/Q1183K, the tested form may be a part) above, with N696S, S932L, L995Q, S998T, A1033S, K1183Q counted along it

SMILES	pIC50 [1]	pIC50 [2]
c1ccc(N2CCc3c(OC4CCOCC4)nc(N4CCOCC4)nc32)cc1 [Compound 21, 4-(7-phenyl-4-((tetrahydro-2H-pyran-4-yl)oxy)-6,7-dihydro-5H-pyrrolo[2,3-d]pyrimidin-2-yl)morpholine]	6.00 to 7.00	6.00 to 7.00
Clc1nc(N2CCOCC2)nc2c1CCN2c1ccccc1 [Compound 1, 4-(4-chloro-7-phenyl-6,7-dihydro-5H-pyrrolo[2,3-d]pyrimidin-2-yl)morpholine]	6.00 to 7.00	6.00 to 7.00
